{
  "source": "patent US4275072A",
  "about": "“2,6-Dichlorophenyl-substituted amino-imidazole derivatives and use as hypertensive agents” (priority 1979, dated 1981)",
  "key": {"rats": {"system": "rats", "assay": "toxicity (LD50) in rats", "assay_type": "in vivo", "settings": "in words"}, "[1]": {"assay": "preliminary tests of further pharmacological activities", "settings": "in words"}, "[2]": {"assay": "anti-hypertensive activity in mammals, overall observations", "settings": "in words; for anti-hypertensive activity: in mammals", "protocol": "The anti-hypertensive properties of the imidazole derivatives of the invention may be shown by using anesthetized Sprague-Dawley rats of normal weight. The test animals are first anesthetized with urethane. After this the femoral artery is connected by way of a polyethylene tube with a blood pressure transducer. The test substance is injected into the femoral vein. The blood pressure and the pulse frequency are registered with a recorder.\n(§1) In a further test unanesthetized Okamoto-Aoki spontaneous hypertensive rats (SHR) are used. The test derivative is administered perorally by way of a tube into the stomach. The blood pressure is measured from the tail using an indirect bloodless method."}, "[3]": {"system": "anesthetized Sprague-Dawley rats", "assay": "blood pressure and pulse frequency in anesthetized Sprague-Dawley rats, i.v.", "assay_type": "in vivo", "description": "The test animals are first anesthetized with urethane. […] The test substance is injected into the femoral vein."}, "Sprague-Dawley male rats": {"system": "Sprague-Dawley male rats", "assay": "diuretic effect: urine volume in rats after intraperitoneal injection", "assay_type": "in vivo", "settings": "for Mean Cumulative Volume of Urine, 0-1 hours / Mean Cumulative Volume of Urine, 0-2 hours / Mean Cumulative Volume of Urine, 0-3 hours / Mean Cumulative Volume of Urine, 0-4 hours / Mean Cumulative Volume of Urine, 0-5 hours: 2 mg/kg intraperitoneally, 6 rats, 10 ml water by gastric tube; for Mean Cumulative Volume of Urine, 0-1 hours: saline control 1.1; for Mean Cumulative Volume of Urine, 0-2 hours: saline control 7.2; for Mean Cumulative Volume of Urine, 0-3 hours: saline control 11.4; for Mean Cumulative Volume of Urine, 0-4 hours / Mean Cumulative Volume of Urine, 0-5 hours: saline control 13.5; for diuretic activity: in words", "description": "The diuretic effect of the intermediates may be studied by injecting the compounds intraperitoneally to adult Sprague-Dawley male rats after an overnight fast. Simultaneously, 10 ml of water is fed to each rat through a gastric tube."}, "[4]": {"system": "Okamoto-Aoki spontaneous hypertensive rats (SHR)", "assay": "blood pressure in unanesthetized spontaneous hypertensive rats (SHR), peroral", "assay_type": "in vivo", "settings": "100 mg/kg p.o.", "protocol": "as §1"}, "gastric ulcers": {"system": "gastric ulcers", "assay": "anti-ulcer activity: gastric ulcers induced by anti-inflammatory agents (e.g., indomethacin)", "assay_type": "in vivo", "settings": "i.p., ulcers counted after three hours, fasted female rats"}, "[5]": {"settings": "in words; prior art; cited from earlier work"}},
  "data": [
    {"smiles": "Cc1c[nH]c(Nc2c(Cl)cccc2Cl)n1", "note": "[compound II, 2-(2',6'-dichloroanilino)-4-methyl-imidazole]", "values": [
      {"measurement": "toxicity", "setting": "rats", "result": "low toxicity"},
      {"measurement": "analgesic activity", "setting": "[1]", "result": "analgesic"},
      {"measurement": "anti-arrhythmic activity", "setting": "[1]", "result": "anti-arrhythmic activity"},
      {"measurement": "anti-convulsant activity", "setting": "[1]", "result": "anti-convulsant"},
      {"measurement": "anti-depressant activity", "setting": "[1]", "result": "anti-depressant"},
      {"measurement": "anti-inflammatory activity", "setting": "[1]", "result": "anti-inflammatory"},
      {"measurement": "anti-ulcer activity", "setting": "[1]", "result": "anti-ulcer"},
      {"measurement": "anti-hypertensive activity", "setting": "[2]", "result": "excellent anti-hypertensive activity"},
      {"measurement": "reduction of the blood pressure, character and duration", "setting": "[2]", "result": "smooth and of relatively long duration"},
      {"measurement": "temporary rise of the blood pressure at the beginning of the administration", "setting": "[2]", "result": "No temporary rise of the blood pressure is observed"},
      {"measurement": "Average reduction of blood pressure", "setting": "[3]; 10 mg/kg i.v.", "result": 25, "unit": "%"}
    ]},
    {"smiles": "O=C(O)Cc1c[nH]c(Nc2c(Cl)cccc2Cl)n1", "note": "[Compound IIa, 4-[2-(2',6'-dichloroanilino)]-imidazoleacetic acid]", "values": [
      {"measurement": "Mean Cumulative Volume of Urine, 0-1 hours", "setting": "Sprague-Dawley male rats", "result": 1.3, "unit": "mL"},
      {"measurement": "Mean Cumulative Volume of Urine, 0-2 hours", "setting": "Sprague-Dawley male rats", "result": 8.1, "unit": "mL"},
      {"measurement": "Mean Cumulative Volume of Urine, 0-3 hours", "setting": "Sprague-Dawley male rats", "result": 12.9, "unit": "mL"},
      {"measurement": "Mean Cumulative Volume of Urine, 0-4 hours", "setting": "Sprague-Dawley male rats", "result": 14.3, "unit": "mL"},
      {"measurement": "Mean Cumulative Volume of Urine, 0-5 hours", "setting": "Sprague-Dawley male rats", "result": 14.9, "unit": "mL"},
      {"measurement": "diuretic activity", "setting": "Sprague-Dawley male rats", "result": "significant diuretic activity"}
    ]},
    {"smiles": "CCOC(=O)Cc1c[nH]c(Nc2c(Cl)cccc2Cl)n1", "note": "[Compound IIb, 4-[2-(2',6'-dichloroanilino)]-imidazoleacetic acid ethyl ester]", "values": [
      {"measurement": "Mean Cumulative Volume of Urine, 0-1 hours", "setting": "Sprague-Dawley male rats", "result": 3.4, "unit": "mL"},
      {"measurement": "Mean Cumulative Volume of Urine, 0-2 hours", "setting": "Sprague-Dawley male rats", "result": 9.5, "unit": "mL"},
      {"measurement": "Mean Cumulative Volume of Urine, 0-3 hours", "setting": "Sprague-Dawley male rats", "result": 13.4, "unit": "mL"},
      {"measurement": "Mean Cumulative Volume of Urine, 0-4 hours", "setting": "Sprague-Dawley male rats", "result": 14.4, "unit": "mL"},
      {"measurement": "Mean Cumulative Volume of Urine, 0-5 hours", "setting": "Sprague-Dawley male rats", "result": 14.4, "unit": "mL"}
    ]},
    {"smiles": "Cc1cn(-c2c(Cl)cccc2Cl)c(N)n1", "note": "[compound I, 1-(2',6'-dichlorophenyl)-2-amino-4-methyl-imidazole]", "values": [
      {"measurement": "Average reduction of blood pressure", "setting": "[4]", "result": 35, "unit": "%"},
      {"measurement": "analgesic activity", "setting": "[1]", "result": "analgesic"},
      {"measurement": "anti-arrhythmic activity", "setting": "[1]", "result": "anti-arrhythmic activity"},
      {"measurement": "anti-convulsant activity", "setting": "[1]", "result": "anti-convulsant"},
      {"measurement": "anti-depressant activity", "setting": "[1]", "result": "anti-depressant"},
      {"measurement": "anti-inflammatory activity", "setting": "[1]", "result": "anti-inflammatory"},
      {"measurement": "anti-ulcer activity", "setting": "[1]", "result": "anti-ulcer"},
      {"measurement": "minimal effective dose", "setting": "gastric ulcers; Rattus norvegicus, ip, 3 h, doses as small as, read-out: smallest dose effective in reducing the number of ulcers", "result": 1, "unit": "mg/kg"},
      {"measurement": "dose that prevents the formation of gastric ulcers", "setting": "gastric ulcers", "result": "~20", "unit": "mg/kg"},
      {"measurement": "anti-hypertensive activity", "setting": "[2]", "result": "excellent anti-hypertensive activity"},
      {"measurement": "reduction of the blood pressure, character and duration", "setting": "[2]", "result": "smooth and of relatively long duration"},
      {"measurement": "temporary rise of the blood pressure at the beginning of the administration", "setting": "[2]", "result": "No temporary rise of the blood pressure is observed"},
      {"measurement": "Average reduction of blood pressure", "setting": "[3]; 10 mg/kg i.v.", "result": 25, "unit": "%"},
      {"measurement": "Average reduction of pulse frequency", "setting": "[3]; 10 mg/kg i.v.", "result": 20, "unit": "%"},
      {"measurement": "Average reduction of blood pressure", "setting": "[3]; 3,3 mg/kg i.v.", "result": 20, "unit": "%"}
    ]},
    {"smiles": "CCOC(=O)Cc1cn(-c2c(Cl)cccc2Cl)c(N)n1", "note": "[Compound Ib, 4-[1-(2',6'-dichlorophenyl)-2-amino]-imidazoleacetic acid ethyl ester]", "values": [
      {"measurement": "Mean Cumulative Volume of Urine, 0-1 hours", "setting": "Sprague-Dawley male rats", "result": 2.3, "unit": "mL"},
      {"measurement": "Mean Cumulative Volume of Urine, 0-2 hours", "setting": "Sprague-Dawley male rats", "result": 10.9, "unit": "mL"},
      {"measurement": "Mean Cumulative Volume of Urine, 0-3 hours", "setting": "Sprague-Dawley male rats", "result": 12.3, "unit": "mL"},
      {"measurement": "Mean Cumulative Volume of Urine, 0-4 hours", "setting": "Sprague-Dawley male rats", "result": 14.5, "unit": "mL"},
      {"measurement": "Mean Cumulative Volume of Urine, 0-5 hours", "setting": "Sprague-Dawley male rats", "result": 15.7, "unit": "mL"}
    ]},
    {"smiles": "Clc1cccc(Cl)c1N=C1NCCN1", "note": "[clonidine, 2-(2,6-dichloroanilino)-2-imidazoline]", "values": [
      {"measurement": "temporary rise of the blood pressure at the beginning of administration", "setting": "[5]", "result": "temporary rise in blood pressure at the beginning of administration"}
    ]},
    {"smiles": "Nc1nc(CC(=O)O)cn1-c1c(Cl)cccc1Cl", "note": "[Compound Ia, 4-[1-(2',6'-dichlorophenyl)-2-amino]-imidazoleacetic acid]", "values": [
      {"measurement": "Mean Cumulative Volume of Urine, 0-1 hours", "setting": "Sprague-Dawley male rats", "result": 2.6, "unit": "mL"},
      {"measurement": "Mean Cumulative Volume of Urine, 0-2 hours", "setting": "Sprague-Dawley male rats", "result": 10.2, "unit": "mL"},
      {"measurement": "Mean Cumulative Volume of Urine, 0-3 hours", "setting": "Sprague-Dawley male rats", "result": 13.9, "unit": "mL"},
      {"measurement": "Mean Cumulative Volume of Urine, 0-4 hours", "setting": "Sprague-Dawley male rats", "result": 14.7, "unit": "mL"},
      {"measurement": "Mean Cumulative Volume of Urine, 0-5 hours", "setting": "Sprague-Dawley male rats", "result": 16.4, "unit": "mL"},
      {"measurement": "diuretic activity", "setting": "Sprague-Dawley male rats", "result": "significant diuretic activity"}
    ]}
  ]
}
